Source: patent EP0540185A1, “4'-(N-substituted-N-oxide)staurosporine derivatives” (SCHERING CORPORATION, priority 1991, dated 1993)

How the values were obtained:
[1] = molecular target: partially purified rat brain PKC; experiment: Mixed micellular protein kinase C (PKC) assay; type: biochemical; conditions: for IC50: histone III-S substrate, 23°C, 15 min, 2% DMSO; for MLCK/PKC: selectivity, ratio of IC50 MLCK to IC50 PKC
Experimental: (§1) The below listed Test Methods A and B were run in accordance with the procedures described in Bishop, W.R., Petrin, J., Wang, L., Ramesh, U., and Doll, R.J. (1990) Biochemical Pharmacology, Vol. 40,2129-2135 and Hannun et al. J. Biol. Chem. (1985), Vol. 260, 10039-10043, which are herein incorporated by reference with the following modifications.
A. Protein Kinase C ("PKC") Protocol
Mixed micellular protein kinase C assays were conducted in accordance with the methods described in the two articles cited just above (namely, Bishop et al, and Hannun et al), in a reaction mixture (0.25 mL total volume) containing: 20 mM Tris-HCl (pH 7.5); […] histone III-S; 10 mM MgCl₂; 5 mM [g-32P]ATP (4 x 10^6 cpm/mmol); 200 mM CaCl₂; 32 mg/mL of phosphatidylserine; 1.6 mg/mL of 1-oleoyl-2-acetylglycerol and various concentrations of compounds of this invention added from a dimethyl-sulfoxide (DMSO) stock solution. The final concentration of DMSO in the reaction was 2% w/v. Reactions were started by addition of approximately […] of partially purified rat brain PKC and allowed to proceed at 23°C for 15 min. Reactions were terminated by collection of trichloroacetic acid-precipitated phosphorylated histone on GF/C filters using a Brandel Cell Harvester (Model No. M-24-R).

[2] = molecular target: Myosin light chain kinase (MLCK) (Homo sapiens, UniProt Q15746); experiment: Myosin light chain kinase (MLCK) assay; type: biochemical; conditions: MLCK substrate peptide, 10 nM calmodulin, 10 minutes
Experimental: as §1
B. Myosin Light Chain Kinase ("MLCK") Protocol
Myosin light chain kinase (MLCK) assays were conducted in accordance with the methods of the Bishop et al. and Hannun et al. articles listed above in a reaction mixture containing 30 mM MLCK substrate peptide (Lys-Lys-Arg-Pro-Gln-Arg-Ala-Thr-Ser-Asn-Val-Phe-Ser-NH₂), 10 nM calmodulin, 25 mM [g-32P]ATP; 0.1 mM Ca⁺² acetate and 10 mM Mg⁺² acetate. Reactions were stopped after 10 minutes by addition of […] of 375 mM H₃PO₄ and spotting on phosphocellulose P81 paper.

[3] = system: Normal Human Epidermal Keratinocyte (NHEK) Cultures; experiment: Inhibition of spontaneous and induced cornified envelope (CE) formation in NHEK cultures; type: cell-based; set-up: CE formation induced by high calcium-containing media: unit of the concentration uncertain; conditions: for CE formation induced by high calcium-containing media: 1.6 mM Ca+2 media
Experimental: C. Inhidition of Spontaneous and Induced Cornified Envelope ("CE") Formation in Normal Human Epidermal Keratinocyte (NHEK) Cultures.
The data was collected in cultured NHEK cells which were grown in serum-free media to subconflurncy and then treated with DMSO (vehicle control) or various concentration of the compounds of this invention, etretinate (an antipsoriatic aromatic analog of retinoic acid) and staurosporine.
After 15 minutes, the NHEK cells were treated with DMSO (vehicle control), […] of 12-tetradecanoyl-phorbol-13-acetate ("TPA") to evaluate TPA-induced CE formation. In another experiment, the NHEK cells were refed media containing 0.15 mM Ca⁺² (control) or a high calcium-containing media, i.e., a 1.6 mM Ca⁺² media to induce CE formation by such a high calcium-containing media. After 48 hours, the cells so-treated were harvested and viable and total cells were counted. Cornified envelopes were assessed after resuspending cells pellets in buffer containing sodium dodecyl sulfate ("SDS") and dithiothreitol ("DTT"). CE formation induced by TPA or high calcium-containing media was expressed as CE/viable cells and each treatment group was compared to its appropriate control group.

[4] = concentration of <10 mM, NHEK cells

Myosin light chain kinase (MLCK), sequence (Q15746 whole entry): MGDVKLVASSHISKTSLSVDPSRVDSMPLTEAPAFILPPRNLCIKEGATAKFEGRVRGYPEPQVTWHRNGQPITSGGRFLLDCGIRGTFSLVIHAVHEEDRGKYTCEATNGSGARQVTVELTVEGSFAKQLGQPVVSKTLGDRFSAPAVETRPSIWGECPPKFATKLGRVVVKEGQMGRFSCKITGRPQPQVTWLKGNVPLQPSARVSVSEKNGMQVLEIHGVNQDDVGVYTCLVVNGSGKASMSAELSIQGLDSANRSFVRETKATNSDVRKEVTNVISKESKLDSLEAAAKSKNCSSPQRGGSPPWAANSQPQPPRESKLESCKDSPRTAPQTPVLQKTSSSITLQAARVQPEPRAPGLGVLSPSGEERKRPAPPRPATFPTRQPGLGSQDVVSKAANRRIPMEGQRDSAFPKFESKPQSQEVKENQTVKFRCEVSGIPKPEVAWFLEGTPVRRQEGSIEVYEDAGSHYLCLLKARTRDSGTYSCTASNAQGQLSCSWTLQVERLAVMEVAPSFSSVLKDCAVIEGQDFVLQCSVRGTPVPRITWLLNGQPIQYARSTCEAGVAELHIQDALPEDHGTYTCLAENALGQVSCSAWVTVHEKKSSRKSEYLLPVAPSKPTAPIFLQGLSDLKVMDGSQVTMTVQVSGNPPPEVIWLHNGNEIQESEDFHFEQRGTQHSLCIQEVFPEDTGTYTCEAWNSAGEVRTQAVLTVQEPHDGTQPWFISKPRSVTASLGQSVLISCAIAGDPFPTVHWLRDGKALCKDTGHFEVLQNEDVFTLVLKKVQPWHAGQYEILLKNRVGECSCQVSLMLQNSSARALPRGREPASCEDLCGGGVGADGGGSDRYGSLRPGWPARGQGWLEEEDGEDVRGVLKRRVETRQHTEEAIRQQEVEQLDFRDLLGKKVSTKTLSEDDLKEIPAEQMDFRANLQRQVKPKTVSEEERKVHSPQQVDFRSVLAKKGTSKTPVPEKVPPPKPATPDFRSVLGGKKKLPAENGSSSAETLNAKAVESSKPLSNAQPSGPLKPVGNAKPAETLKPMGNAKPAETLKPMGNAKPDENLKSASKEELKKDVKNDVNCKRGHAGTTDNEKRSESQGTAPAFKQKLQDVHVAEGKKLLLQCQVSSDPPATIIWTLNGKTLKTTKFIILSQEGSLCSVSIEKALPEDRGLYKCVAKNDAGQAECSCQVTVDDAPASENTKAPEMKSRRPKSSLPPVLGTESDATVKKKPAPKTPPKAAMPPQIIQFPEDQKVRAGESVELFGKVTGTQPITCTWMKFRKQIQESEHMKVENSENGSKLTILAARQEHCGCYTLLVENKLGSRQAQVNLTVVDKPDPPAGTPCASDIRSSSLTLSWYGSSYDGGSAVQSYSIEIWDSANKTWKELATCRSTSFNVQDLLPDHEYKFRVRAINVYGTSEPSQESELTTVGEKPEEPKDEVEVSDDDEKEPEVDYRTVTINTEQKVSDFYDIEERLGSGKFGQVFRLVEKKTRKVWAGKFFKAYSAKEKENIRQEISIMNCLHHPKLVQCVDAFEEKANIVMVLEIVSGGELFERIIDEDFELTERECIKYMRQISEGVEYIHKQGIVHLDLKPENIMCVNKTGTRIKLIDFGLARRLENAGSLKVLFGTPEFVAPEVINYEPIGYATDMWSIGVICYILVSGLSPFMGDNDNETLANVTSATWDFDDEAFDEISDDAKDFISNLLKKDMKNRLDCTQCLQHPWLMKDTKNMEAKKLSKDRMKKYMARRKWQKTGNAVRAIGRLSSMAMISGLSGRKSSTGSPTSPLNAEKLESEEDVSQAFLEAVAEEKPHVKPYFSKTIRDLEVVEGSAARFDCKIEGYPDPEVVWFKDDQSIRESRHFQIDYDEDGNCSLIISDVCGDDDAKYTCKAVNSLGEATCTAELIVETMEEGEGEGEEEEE

| Compound | IC50 [1] [nM] | MLCK/PKC [1] | IC50 [2] [nM] | further results |
| --- | --- | --- | --- | --- |
| COC1C([N+](C)(C)[O-])CC2OC1(C)n1c3ccccc3c3c4c(c5c6ccccc6n2c5c31)C(=O)NC4 (stereo not drawn) [Example 1, 4′ N-methyl-N-oxide of staurosporine] | 3.1 | 11 | 34 | – |
| COC1C([N+](C)([O-])Cc2ccccc2)CC2OC1(C)n1c3ccccc3c3c4c(c5c6ccccc6n2c5c31)C(=O)NC4 (stereo not drawn) [Example 11, 4′-N-benzyl-N-oxide of staurosporine] | 33 | 16.7 | 55 | CE formation induced by high calcium-containing media ([3]; 500 (unit uncertain) concentration, NHEK cells, 48 hours): 71%; CE formation induced by high calcium-containing media ([3]; 1000 (unit uncertain) concentration, NHEK cells, 48 hours): 74%; TPA-induced CE formation ([3]; concentration of 250 mM, TPA-treated NHEK cells, 48 hours): antagonizes |
| CN[C@@H]1C[C@H]2O[C@@](C)([C@@H]1OC)n1c3ccccc3c3c4c(c5c6ccccc6n2c5c31)C(=O)NC4 [Staurosporine, staurosporine] | – | – | – | CE formation [3, 4]: potently inhibited; cytotoxicity [3, 4]: cytotoxicity was observed |
| CCOC(=O)/C=C(C)/C=C/C=C(C)/C=C/c1c(C)cc(OC)c(C)c1C [etretinate, reference compound] | – | – | – | cornified envelope formation / keratinocyte cornification ([3]; human keratinocytes, no concentration given): inhibition of keratinocyte cornification |
